Assay results taken from PubChem BioAssay AID330 (DTP/NCI, 2004).
Values joined by “and” are separate entries in the source; they are usually repeats but may differ in a detail not shown here. Identical values can stand only once. Toxic doses and inconclusive results are not listed. The calls were made as follows: active = survival T/C of 150% or more; inactive = T/C below 125% in these data.

Test system: P388 leukemia ip, CD2F1 mice, survival T/C
Assay: NCI In Vivo Anticancer Drug Screen. Data for tumor model P388 Leukemia (intraperitoneal) in CD2F1 (CDF1) mice
Settings: endpoint: median survival time, higher = longer survival
Outline: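 Mice carrying the transplanted tumor received test compound or vehicle. Survival was recorded in each group, and the value is the treated-group measurement divided by that of the vehicle-treated control group.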

[1] = dose: 100.0 mg/kg/injection, schedule: Q04DX002 (ip), vehicle: saline with Tween-80
[2] = dose: 12.5 mg/kg/injection, schedule: Q01DX009 (ip), vehicle: saline with Tween-80
[3] = dose: 25.0 mg/kg/injection, schedule: Q01DX009 (ip), vehicle: saline with Tween-80
[4] = dose: 50.0 mg/kg/injection, schedule: Q01DX009 (ip), vehicle: saline
[5] = dose: 100.0 mg/kg/injection, schedule: Q01DX009 (ip), vehicle: saline
[6] = dose: 50.0 mg/kg/injection, schedule: Q01DX009 (ip), vehicle: saline with Tween-80
[7] = dose: 100.0 mg/kg/injection, schedule: Q01DX009 (ip), vehicle: saline with Tween-80
[8] = dose: 200.0 mg/kg/injection, schedule: Q01DX009 (ip), vehicle: saline with Tween-80
[9] = dose: 400.0 mg/kg/injection, schedule: Q01DX009 (ip), vehicle: saline with Tween-80
[10] = dose: 50.0 mg/kg/injection, schedule: Q01DX005 (ip), vehicle: Klucel (hydroxypropylcellulose) (HPC)
[11] = dose: 100.0 mg/kg/injection, schedule: Q01DX005 (ip), vehicle: Klucel (hydroxypropylcellulose) (HPC)
[12] = dose: 200.0 mg/kg/injection, schedule: Q01DX005 (ip), vehicle: Klucel (hydroxypropylcellulose) (HPC)
[13] = dose: 50.0 mg/kg/injection, schedule: Q01DX005 (ip), vehicle: saline with Tween-80
[14] = dose: 100.0 mg/kg/injection, schedule: Q01DX005 (ip), vehicle: saline with Tween-80
[15] = dose: 200.0 mg/kg/injection, schedule: Q01DX005 (ip), vehicle: saline with Tween-80
[16] = dose: 60.0 mg/kg/injection, schedule: Q01DX005 (ip), vehicle: saline with Tween-80
[17] = dose: 120.0 mg/kg/injection, schedule: Q01DX005 (ip), vehicle: saline with Tween-80
[18] = dose: 240.0 mg/kg/injection, schedule: Q01DX005 (ip), vehicle: saline with Tween-80

Measured: T/C

Cc1cccc(-n2c(-c3ccc(Cl)cc3)cs/c2=N\Nc2nnc(-c3ccccc3)c(-c3ccccc3)n2)c1
inactive: [1] 88 % of control | dose: 200.0 mg/kg/injection, schedule: Q04DX002 (ip), vehicle: saline with Tween-80 87 % of control | dose: 400.0 mg/kg/injection, schedule: Q04DX002 (ip), vehicle: saline with Tween-80 89 % of control

NNP(=O)(Oc1ccccc1)Oc1ccccc1
inactive: dose: 3.12 mg/kg/injection, schedule: Q01DX009 (ip), vehicle: saline with Tween-80 110 % of control | dose: 6.25 mg/kg/injection, schedule: Q01DX009 (ip), vehicle: saline with Tween-80 101 % of control | [2] 106 % of control | [3] 109 % of control and 110 % of control

CCN(CC)c1ccc(/C=N/Nc2c3c(nc4ccccc24)CCCC3)cc1
inactive: dose: 6.25 mg/kg/injection, schedule: Q01DX005 (ip), vehicle: saline 100 % of control | dose: 12.5 mg/kg/injection, schedule: Q01DX005 (ip), vehicle: saline 99 % of control

O=C(NC(CSSCC(NC(=O)OCc1ccccc1)C(=O)O)C(=O)O)OCc1ccccc1 (stereo not drawn)
inactive: dose: 100.0 mg/kg/injection, schedule: Q04DX003 (ip), vehicle: other 100 % of control | dose: 200.0 mg/kg/injection, schedule: Q04DX003 (ip), vehicle: other 100 % of control | dose: 400.0 mg/kg/injection, schedule: Q04DX003 (ip), vehicle: other 100 % of control

CC[N+](C)(C)c1nc(N(C)C)nc(N(C)C)n1
inactive: dose: 6.0 mg/kg/injection, schedule: Q01DX005 (ip), vehicle: saline 108 % of control | dose: 12.0 mg/kg/injection, schedule: Q01DX005 (ip), vehicle: saline 118 % of control

Cc1ccc(C(=O)OC(CCN(C)C)c2ccccc2)cc1 (stereo not drawn)
inactive: [4] 109 % of control | [5] 106 % of control

NC(Cc1c[nH]c2ccc([N+](=O)[O-])cc12)C(=O)O (stereo not drawn)
inactive: [6] 92 % of control | [7] 91 % of control | [8] 94 % of control | [9] 91 % of control

CC1(CO)C2CCC(CC2)C1CO (stereo not drawn)
inactive: [6] 109 % of control | [7] 100 % of control | [8] 104 % of control

COc1cc(CCNC(=O)CCN2C(=O)CCC2=O)cc(OC)c1OC
inactive: [4] 104 % of control | [5] 100 % of control | dose: 200.0 mg/kg/injection, schedule: Q01DX009 (ip), vehicle: saline 103 % of control

NC(=O)C1=C(N)CCC1
inactive: [7] 90 % of control | [8] 90 % of control | [9] 100 % of control

Cc1ccccc1Nc1c2ccccc2nc2ccccc12
inactive: dose: 12.5 mg/kg/injection, schedule: Q04DX003 (ip), vehicle: saline with Tween-80 95 % of control | dose: 25.0 mg/kg/injection, schedule: Q04DX003 (ip), vehicle: saline with Tween-80 95 % of control | dose: 50.0 mg/kg/injection, schedule: Q04DX003 (ip), vehicle: saline with Tween-80 104 % of control

CC(C)[C@@H](C)/C=C/[C@@H](C)[C@H]1CC[C@@H]2[C@]1(C)CC[C@H]1[C@]23C=C[C@]2(C[C@@H](O)CC[C@]12C)OO3
inactive: dose: 3.75 mg/kg/injection, schedule: Q01DX005 (ip), vehicle: Klucel (hydroxypropylcellulose) (HPC) 93 % of control | dose: 7.5 mg/kg/injection, schedule: Q01DX005 (ip), vehicle: Klucel (hydroxypropylcellulose) (HPC) 93 % of control | dose: 15.0 mg/kg/injection, schedule: Q01DX005 (ip), vehicle: Klucel (hydroxypropylcellulose) (HPC) 86 % of control | dose: 25.0 mg/kg/injection, schedule: Q01DX005 (ip), vehicle: Klucel (hydroxypropylcellulose) (HPC) 90 % of control | dose: 30.0 mg/kg/injection, schedule: Q01DX005 (ip), vehicle: Klucel (hydroxypropylcellulose) (HPC) 90 % of control | [10] 89 % of control | [11] 86 % of control | [12] 98 % of control

OCN1CCC23c4c5ccc(O)c4OC2C(O)C=CC3C1C5 (stereo not drawn)
inactive: [13] 100 % of control | [14] 100 % of control | [15] 100 % of control

CNCCC(Oc1ccc(C(F)(F)F)cc1)c1ccccc1 (stereo not drawn)
inactive: dose: 25.0 mg/kg/injection, schedule: Q04DX002 (ip), vehicle: saline with Tween-80 106 % of control | dose: 50.0 mg/kg/injection, schedule: Q04DX002 (ip), vehicle: saline with Tween-80 106 % of control | [1] 106 % of control

NNC1=NCCS1
inactive: dose: 0.31 mg/kg/injection, schedule: Q01DX009 (ip), vehicle: saline with Tween-80 101 % of control | dose: 0.62 mg/kg/injection, schedule: Q01DX009 (ip), vehicle: saline with Tween-80 98 % of control | dose: 1.25 mg/kg/injection, schedule: Q01DX009 (ip), vehicle: saline with Tween-80 104 % of control

COC(=O)C(CSCSCc1ccccc1)NC(=O)C(CSCc1ccccc1)NC(=O)CCNC(=O)OCc1ccccc1 (stereo not drawn)
inactive: dose: 3.12 mg/kg/injection, schedule: Q04DX003 (ip), vehicle: saline 114 % of control | dose: 6.25 mg/kg/injection, schedule: Q04DX003 (ip), vehicle: saline 100 % of control | dose: 12.5 mg/kg/injection, schedule: Q04DX003 (ip), vehicle: saline 98 % of control | dose: 25.0 mg/kg/injection, schedule: Q04DX003 (ip), vehicle: saline 112 % of control

COc1nc(NC2OC(COC(C)=O)C(OC(C)=O)C(OC(C)=O)C2OC(C)=O)c(N=CC=Nc2c(NC3OC(COC(C)=O)C(OC(C)=O)C(OC(C)=O)C3OC(C)=O)nc(OC)[nH]c2=O)c(=O)[nH]1 (stereo not drawn)
inactive: [16] 89 % of control | [17] 90 % of control | [18] 95 % of control

C/C(=N\Nc1cc(C)c2ccccc2n1)c1ccccn1
inactive: dose: 12.5 mg/kg/injection, schedule: Q01DX005 (ip), vehicle: saline with Tween-80 103 % of control | dose: 25.0 mg/kg/injection, schedule: Q01DX005 (ip), vehicle: saline with Tween-80 103 % of control | [13] 102 % of control and 115 % of control

CCCC(CCC)NCC(O)c1cc(-c2ccc(C(F)(F)F)cc2)nc(C(F)(F)F)c1 (stereo not drawn)
inactive: [2] 102 % of control | [3] 107 % of control | [6] 100 % of control and 91 % of control

S=C(N/N=C/c1c[nH]c2ccccc12)NC12CC3CC(CC(C3)C1)C2
inactive: [16] 101 % of control | [17] 90 % of control

O=C1CC2(CCCC2)CC(=O)N1c1ccc(O)c(CN2CCCCC2)c1
inactive: dose: 50.0 mg/kg/injection, schedule: Q01DX009 (ip), vehicle: Klucel (hydroxypropylcellulose) (HPC) 105 % of control | dose: 100.0 mg/kg/injection, schedule: Q01DX009 (ip), vehicle: Klucel (hydroxypropylcellulose) (HPC) 100 % of control | dose: 200.0 mg/kg/injection, schedule: Q01DX009 (ip), vehicle: Klucel (hydroxypropylcellulose) (HPC) 102 % of control

O=C1c2ccccc2C(=O)N1CC(O)COCc1ccccc1 (stereo not drawn)
inactive: [13] 102 % of control | [14] 98 % of control | [15] 100 % of control

CCC[CH2][Sn]([CH2]CCC)([n]1ccnc1)[n]1ccnc1
inactive: dose: 3.12 mg/kg/injection, schedule: Q01DX005 (ip), vehicle: Klucel (hydroxypropylcellulose) (HPC) 116 % of control | dose: 6.25 mg/kg/injection, schedule: Q01DX005 (ip), vehicle: Klucel (hydroxypropylcellulose) (HPC) 110 % of control

O=C(O)C(CCCCNC(=S)S)NC(=S)S.[Na+].[Zn+2] (stereo not drawn)
inactive: [10] 95 % of control | [11] 95 % of control | [12] 102 % of control

N#Cc1c(-c2ccc(Cl)cc2)cn2c1[nH]c(=O)c1cc(Br)ccc12
inactive: [16] 99 % of control | [17] 102 % of control | [18] 95 % of control
